Entries after “also recorded” stand apart in the source; their conditions may differ.
Columns and labels:
[1] = molecular target: T1, G3BP1 Y40 (Homo sapiens, UniProt Q13283); experiment: Competitive ABPP SILAC LC-MS/MS chemical proteomics, G3BP1 Y40; format: cell-based; conditions: stressed HeLa cells, 25 μM, 2 h
T1 construct: liganded site Y40 in NTF2 domain
Protocol: Preparation of SILAC proteomes for LC-MS/MS analysis. SILAC cell proteomes were fractionated to collect the supernatant and normalized to 2.3 mg/mL in PBS. ‘Heavy’ and ‘light’ proteomes were aliquoted (427 μL) and probe-modified proteins were conjugated to desthiobiotin-PEG-3-azide using copper-catalyze azide-alkyne cycloaddition, trypsinized into peptides using Trypsin/Lys-C Mix (Catalog No. V5071; Promega Corporation, Madison, Wisconsin, United States of America), enriched using PIERCE™ Avidin Agarose brand beads (Catalog No. 20219; Thermo Fisher Scientific Inc., Waltham, Massachusetts. United States of America), and prepared for nano-electrospray ionization-LC-MS/MS analysis as previously described in Hahm et al., 2020.
Data Analysis—Chemical Proteomics. Identification and analysis of peptides and proteins using LC-MS was accomplished using bioinformatics software and quality control parameter protocols as previously described in Hahm et al., 2020.
We performed quantitative liquid-chromatography tandem mass spectrometry (LC-MS/MS) chemical proteomic studies to identify the target protein and binding site(s) of SuTEx fragments with RNP granule modulating activity. […] SILAC light and heavy cells (HEK293T and HeLa) were treated with experimental conditions used for phenotypic screening including the SuTEx ligand pretreatment (25 μM, 2 h) followed by PB (glucose-deprivation, 15 min) and SG induction (75 μM [COMPOUND LEFT OUT], 30 min). Afterwards, cells were lysed, soluble proteomes treated with HHS-465 SuTEx probe (100 μM, 1 h), a global Tyr/Lys-reactive probe used previously for RNP granule investigations (Ciancone et al., 2022), and samples processed to probe-modified peptides for LC-MS/MS analysis as previously reported (Huang et al., 2021), shown in FIG. 10.
We detected ~8,700 probe-modified sites (Tyr and Lys) in our aggregate HeLa and HEK293T chemical proteomic analyses. […]

[2] = Lipophilic efficiency calculation (cLogP from ChemDraw); conditions: from IC50 (AHL-030) or EC50 (HHS-166) and cLogP
Protocol: Lipophilic efficiency calculations for AHL-030 and HHS-166. Lipophilic efficiency was calculated as previously described in Leeson & Springthorpe, 2007 using IC50 (AHL-030) and EC50 (HHS-166) potency values from experiments and c Log P values from ChemDraw (Version 20.0.0.41 on a Windows PC): […]

[3] = tested on: P-bodies (EDC4 foci) in HEK293T cells; experiment: Immunofluorescence phenotypic screen for P-bodies (α-EDC4) in glucose-deprived HEK293T cells; format: cell-based; conditions: glucose-deprived HEK293T cells, 25 μM, 2 h
Protocol: SuTEx compound treatments. Prior to treatments, cells were washed twice with warm phosphate-buffered saline (PBS) and exchanged with serum-free DMEM (supplemented with 1% L-glutamine) for at least 30 minutes at 37° C. with 5% CO2. Compounds were then added as 1000×DMSO stocks (10 μL for 10 cm dishes and 3 μL for 6-well dishes), plates were mixed gently, and cells were incubated for two hours. All compounds were thoroughly vortexed and sonicated for five minutes prior to addition to ensure complete solvation. For microscopy experiments, cultures were seeded at 150,000 cells in 3 mL of DMEM in 6-well THERMO SCIENTIFIC™ BIOLITE™ brand microwell plates (Catalog No. 12556004; Thermo Fisher Scientific Inc., Waltham, Massachusetts. United States of America). For collection, media was aspirated, and cells were washed once with cold PBS before scraping from plates. Cells were centrifuged at 500×g at 4° C. for 5 minutes and supernatant was removed. Cell pellets were resuspended in cold PBS (1 mL) and centrifuged at 1,400×g at 4° C. for 3 minutes. Supernatant was again removed, and pellets were then snap-frozen in liquid nitrogen and stored at −80° C. until needed.
Immunofluorescence. Immunofluorescence (IF) of HEK293T cells was performed as previously described in Ciancone et al., 2022. HeLa cells were seeded at 9.0×10^4 in a 24-well plate with 12-mm glass coverslips. The next day, the cells were treated with 25 μM SuTEx probe for 2 hours in DMEM medium without FBS. The cells were then treated with 75 μM NaAsO2 for 30 minutes and fixed with 3% paraformaldehyde in PBS for 15 minutes at room temperature (RT) and washed with PBS twice. The fixed cells were permeabilized with PBST (0.1% Triton X-100) for 15 minutes at room temperature and blocked with 5% goat serum in PBST for 30 minutes at RT. The cells were incubated with anti-G3BP1 antibody H-10 (Catalog No. sc-365338 at 1:200 dilution; Santa Cruz Biotechnology, Inc., Dallas, Texas, United States of America) for 2 hours at RT and washed with PBST (0.1% Tween-20) for 5 minutes three times. Next, cells were incubated with goat anti-mouse Alexa 594 antibody (Catalog No. 115-585-003 at 1:800 dilution; Jackson ImmunoResearch, West Grove, Pennsylvania, United States of America) for 30 minutes at RT. The cells were washed twice with PBST, stained with Hoechst 33342 (Catalog No. H3570 at […]; Thermo Fischer Scientific) in PBST for 5 minutes, and washed with PBS twice for 5 minutes. The coverslips were mounted in PROLONG™ Gold AntiFade Mountant (Catalog No. P36930, Thermo Fisher Scientific) and imaged using NIS Elements AR software and a Nikon Eclipse Ti microscope equipped with a ×100 objective and CMOS camera. […] A CellProfiler pipeline was developed to quantify the number of stress granules under each condition. Briefly, cells were recognized as blue^+ (nuclei) red^+ (G3BP1) objects, and the red^+ granules that meet the shape and size threshold were identified and counted. Cells on the border of linages were excluded from the analysis for more accurate quantification.
Data Analysis—Microscopy. All slides were blinded for imaging. Leica SP5X images were analyzed using Fiji (ImageJ). Custom macros were written for analysis and can be obtained upon request. To elaborate, images were split into channels based on the different laser wavelengths measured. Image stacks were then combined using ‘Z-Project’ with an average intensity parameter and a threshold was applied to exclude noise based on the negative control (no EDC4 antibody). The ‘Analyze Particles’ function was used with relevant size and circularity constraints (0.85-1.00) to count the number of foci, with total PBs having a diameter of >150 nm, and large PBs>450 nm. The number of foci was normalized to the number of cells (defined by a DAPI stain count) in each linage, and the number of foci per cell was averaged across technical replicates. Every sample had at least two technical replicates and two independent biological replicates. […]

T1 sequence (Q13283 whole entry, the tested form may be a part): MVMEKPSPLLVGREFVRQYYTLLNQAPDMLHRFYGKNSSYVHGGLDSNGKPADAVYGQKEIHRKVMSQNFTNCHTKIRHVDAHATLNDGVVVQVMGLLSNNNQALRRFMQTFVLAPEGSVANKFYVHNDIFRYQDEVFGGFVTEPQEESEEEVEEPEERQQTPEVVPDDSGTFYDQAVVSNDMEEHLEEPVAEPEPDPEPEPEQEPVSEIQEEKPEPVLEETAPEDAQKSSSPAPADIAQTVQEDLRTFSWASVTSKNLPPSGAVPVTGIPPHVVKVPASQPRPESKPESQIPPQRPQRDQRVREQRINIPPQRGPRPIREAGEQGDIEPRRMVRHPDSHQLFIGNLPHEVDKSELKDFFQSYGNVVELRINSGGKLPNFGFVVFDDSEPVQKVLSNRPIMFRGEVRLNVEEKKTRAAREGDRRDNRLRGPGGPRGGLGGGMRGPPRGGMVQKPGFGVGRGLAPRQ

| SILAC ratio (SR), G3BP1 Y40 ([1]; HHS-465 100 μM, DMSO (light)/ligand (heavy)) | LipE (lipophilic efficiency) [2] | SMILES | liganding of G3BP1 Y40 (in words) [1] | effect on PBs (in words) [3] |
| --- | --- | --- | --- | --- |
| > 2 | 3 | COc1ccc(S(=O)(=O)n2cc(C3CCCCC3)nn2)cc1 [HHS-166, 4-Cyclohexyl-1-((4-methoxyphenyl)sulfonyl)-111-1,2,3-triazole] | liganded G3BP1 Y40; also recorded: liganded site (Y40) |  |
|  | 7 | COc1ccc(S(=O)(=O)n2cc(CS(C)(=O)=O)nn2)cc1 [AHL-030, 1-((4-Methoxyphenyl)sulfonyl)-4-((methylsulfonyl)methyl)-1H-1,2,3-triazole] |  | PB-inhibitory; also recorded: modestly inhibiting PBs; also recorded: decreased PBs |
|  |  | N#Cc1ccc(S(=O)(=O)n2cc(-c3cccc(Cl)c3)nn2)cc1 [EKT231, 4-((4-(3-Chlorophenyl)-1H-1,2,3-triazol-1-yl)sulfonyl)benzonitrile] | lack of binding activity |  |
|  |  | CC(C)c1cc(C(C)C)c(S(=O)(=O)n2cc(-c3ccc(C(F)(F)F)cc3)nn2)c(C(C)C)c1 [AHL-003] |  | block both types of RNP granules; also recorded: inhibited |
